Laboratory results published in the supplement of paper PMC8671470.

These compounds were tested on K-562 (assay: cell viability (% survival relative to DMSO control, bortezomib = 0%); higher = less cytotoxic). Details: 10 nM; 72 h.
Outline: (§1)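 After 72 h at 37 °C with 5% CO2, cell viability in 384-well plates was measured by CellTiter-Glo luminescence. The plates held compounds pre-printed at 1, 10, 100, 1000 or 10000 nM in duplicate, and cells from 10 AML and 5 CML lines seeded at densities titrated to linear growth. Percent survival is the duplicate mean, normalised to vehicle as 100% and a 10 µM positive control as 0%.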

Structure (SMILES)	cell viability
Nc1ccn([C@@H]2O[C@H](CO)[C@@H](O)C2(F)F)c(=O)n1 [Gemcitabine]	62.1%
N[C@@H](CCC(=O)N[C@@H](CS)C(=O)NCC(=O)O)C(=O)O [Glutathione]	106%
Clc1cc(Cl)c(OCC#CI)cc1Cl [Haloprogin]	91.4%
O=c1[nH]c(=O)n([C@H]2C[C@H](O)[C@@H](CO)O2)cc1I [Idoxuridine]	102%
CC1Cc2ccccc2N1NC(=O)c1ccc(Cl)c(S(N)(=O)=O)c1 (centres undefined) [Indapamide]	97.3%
NS(=O)(=O)c1ccc(S(=O)(=O)Nc2cccc3c(Cl)c[nH]c23)cc1 [Indisulam]	101%
COc1ccc2c(c1)c(CC(=O)O)c(C)n2C(=O)c1ccc(Cl)cc1 [Indomethacine]	101%
Cn1cc(C[C@@H](N)C(=O)O)c2ccccc21 [Indoximod]	108%

Same assay, conditions: 100 nM; 72 h

Structure (SMILES)	cell viability
OC[C@H]1N[C@@H](c2c[nH]c3c(O)ncnc23)[C@H](O)[C@@H]1O [Forodesine]	88.3%
O=c1oc2c(cc1O)oc(=O)c1cc(O)c(O)c(O)c12 [Galloflavin]	100%
Nc1ccn([C@@H]2O[C@H](CO)[C@@H](O)C2(F)F)c(=O)n1 [Gemcitabine]	37.3%
N[C@@H](CCC(=O)N[C@@H](CS)C(=O)NCC(=O)O)C(=O)O [Glutathione]	92.2%
Clc1cc(Cl)c(OCC#CI)cc1Cl [Haloprogin]	92.6%
O=c1[nH]c(=O)n([C@H]2C[C@H](O)[C@@H](CO)O2)cc1I [Idoxuridine]	99.3%
CC1Cc2ccccc2N1NC(=O)c1ccc(Cl)c(S(N)(=O)=O)c1 (centres undefined) [Indapamide]	120%
NS(=O)(=O)c1ccc(S(=O)(=O)Nc2cccc3c(Cl)c[nH]c23)cc1 [Indisulam]	89.2%
COc1ccc2c(c1)c(CC(=O)O)c(C)n2C(=O)c1ccc(Cl)cc1 [Indomethacine]	96%
Cn1cc(C[C@@H](N)C(=O)O)c2ccccc21 [Indoximod]	79.8%

Same assay, conditions: 1000 nM; 72 h

Structure (SMILES)	cell viability
OC[C@H]1N[C@@H](c2c[nH]c3c(O)ncnc23)[C@H](O)[C@@H]1O [Forodesine]	97.5%
O=c1oc2c(cc1O)oc(=O)c1cc(O)c(O)c(O)c12 [Galloflavin]	116%
Nc1ccn([C@@H]2O[C@H](CO)[C@@H](O)C2(F)F)c(=O)n1 [Gemcitabine]	29.6%
N[C@@H](CCC(=O)N[C@@H](CS)C(=O)NCC(=O)O)C(=O)O [Glutathione]	93.6%
Clc1cc(Cl)c(OCC#CI)cc1Cl [Haloprogin]	95.6%
O=c1[nH]c(=O)n([C@H]2C[C@H](O)[C@@H](CO)O2)cc1I [Idoxuridine]	73.3%
CC1Cc2ccccc2N1NC(=O)c1ccc(Cl)c(S(N)(=O)=O)c1 (centres undefined) [Indapamide]	100%
NS(=O)(=O)c1ccc(S(=O)(=O)Nc2cccc3c(Cl)c[nH]c23)cc1 [Indisulam]	65.4%
COc1ccc2c(c1)c(CC(=O)O)c(C)n2C(=O)c1ccc(Cl)cc1 [Indomethacine]	103%
Cn1cc(C[C@@H](N)C(=O)O)c2ccccc21 [Indoximod]	87.5%

Same assay, conditions: 10000 nM; 72 h

Structure (SMILES)	cell viability
OC[C@H]1N[C@@H](c2c[nH]c3c(O)ncnc23)[C@H](O)[C@@H]1O [Forodesine]	99.3%
O=c1oc2c(cc1O)oc(=O)c1cc(O)c(O)c(O)c12 [Galloflavin]	112%
Nc1ccn([C@@H]2O[C@H](CO)[C@@H](O)C2(F)F)c(=O)n1 [Gemcitabine]	28.7%
N[C@@H](CCC(=O)N[C@@H](CS)C(=O)NCC(=O)O)C(=O)O [Glutathione]	98.7%
Clc1cc(Cl)c(OCC#CI)cc1Cl [Haloprogin]	18.1%
O=c1[nH]c(=O)n([C@H]2C[C@H](O)[C@@H](CO)O2)cc1I [Idoxuridine]	47.1%
CC1Cc2ccccc2N1NC(=O)c1ccc(Cl)c(S(N)(=O)=O)c1 (centres undefined) [Indapamide]	102%
NS(=O)(=O)c1ccc(S(=O)(=O)Nc2cccc3c(Cl)c[nH]c23)cc1 [Indisulam]	36.7%
COc1ccc2c(c1)c(CC(=O)O)c(C)n2C(=O)c1ccc(Cl)cc1 [Indomethacine]	90.4%
Cn1cc(C[C@@H](N)C(=O)O)c2ccccc21 [Indoximod]	89.9%

Each compound was assayed on KU-812 in the same assay as above. Details: 1 nM; 72 h.
Outline: as §1

Structure (SMILES)	cell viability
OC[C@H]1N[C@@H](c2c[nH]c3c(O)ncnc23)[C@H](O)[C@@H]1O [Forodesine]	89.9%
O=c1oc2c(cc1O)oc(=O)c1cc(O)c(O)c(O)c12 [Galloflavin]	94.8%
Nc1ccn([C@@H]2O[C@H](CO)[C@@H](O)C2(F)F)c(=O)n1 [Gemcitabine]	90.8%
N[C@@H](CCC(=O)N[C@@H](CS)C(=O)NCC(=O)O)C(=O)O [Glutathione]	105%
Clc1cc(Cl)c(OCC#CI)cc1Cl [Haloprogin]	104%
O=c1[nH]c(=O)n([C@H]2C[C@H](O)[C@@H](CO)O2)cc1I [Idoxuridine]	92.9%
CC1Cc2ccccc2N1NC(=O)c1ccc(Cl)c(S(N)(=O)=O)c1 (centres undefined) [Indapamide]	89.8%
NS(=O)(=O)c1ccc(S(=O)(=O)Nc2cccc3c(Cl)c[nH]c23)cc1 [Indisulam]	102%
COc1ccc2c(c1)c(CC(=O)O)c(C)n2C(=O)c1ccc(Cl)cc1 [Indomethacine]	100%
Cn1cc(C[C@@H](N)C(=O)O)c2ccccc21 [Indoximod]	93.8%

Same assay, conditions: 10 nM; 72 h

Structure (SMILES)	cell viability
OC[C@H]1N[C@@H](c2c[nH]c3c(O)ncnc23)[C@H](O)[C@@H]1O [Forodesine]	96%
O=c1oc2c(cc1O)oc(=O)c1cc(O)c(O)c(O)c12 [Galloflavin]	96%
Nc1ccn([C@@H]2O[C@H](CO)[C@@H](O)C2(F)F)c(=O)n1 [Gemcitabine]	17.4%
N[C@@H](CCC(=O)N[C@@H](CS)C(=O)NCC(=O)O)C(=O)O [Glutathione]	110%
Clc1cc(Cl)c(OCC#CI)cc1Cl [Haloprogin]	95%
O=c1[nH]c(=O)n([C@H]2C[C@H](O)[C@@H](CO)O2)cc1I [Idoxuridine]	95.9%
CC1Cc2ccccc2N1NC(=O)c1ccc(Cl)c(S(N)(=O)=O)c1 (centres undefined) [Indapamide]	111%
NS(=O)(=O)c1ccc(S(=O)(=O)Nc2cccc3c(Cl)c[nH]c23)cc1 [Indisulam]	99.1%
COc1ccc2c(c1)c(CC(=O)O)c(C)n2C(=O)c1ccc(Cl)cc1 [Indomethacine]	101%
Cn1cc(C[C@@H](N)C(=O)O)c2ccccc21 [Indoximod]	101%

Same assay, conditions: 100 nM; 72 h

Structure (SMILES)	cell viability
OC[C@H]1N[C@@H](c2c[nH]c3c(O)ncnc23)[C@H](O)[C@@H]1O [Forodesine]	96.8%
